# Key:
# [1] = target: T1, HCV NS5B (Hepatitis C virus genotype 1b, UniProt Q9WMX2); experiment: Modified HCV NS5B RdRp enzyme assay (preincubation protocol); assay type: biochemical
# T1 construct: The protein was expressed with an 18 amino acid C-terminal truncation to enhance the solubility; made in house; host or cells: E. coli BL21(DE3)
# Procedure: The cDNA encoding the NS5B protein of HCV, genotype 1b, was cloned into the pET21a expression vector. The protein was expressed with an 18 amino acid C-terminal truncation to enhance the solubility. The E. coli competent cell line BL21(DE3) was used for expression of the protein. Cultures were grown at 37° C. for ˜4 hours until the cultures reached an optical density of 2.0 at 600 nm. The cultures were cooled to 20° C. and induced with 1 mM IPTG. Fresh ampicillin was added to a final concentration of 50 μg/ml and the cells were grown overnight at 20° C.
# Cell pellets (3 L) were lysed for purification to yield 15-24 mgs of purified NS5B. The lysis buffer consisted of 20 mM Tris-HCl, pH 7.4, 500 mM NaCl, 0.5% triton X-100, 1 mM DTT, 1 mM EDTA, 20% glycerol, 0.5 mg/ml lysozyme, 10 mM MgCl2, 15 ug/ml deoxyribonuclease I, and Complete TM protease inhibitor tablets (Roche). After addition of the lysis buffer, frozen cell pellets were resuspended using a tissue homogenizer. To reduce the viscosity of the sample, aliquots of the lysate were sonicated on ice using a microtip attached to a Branson sonicator. The sonicated lysate was centrifuged at 100,000×g for 1 hr at 4° C. and filtered through a 0.2 μm filter unit (Corning).
# The protein was purified using three sequential chromatography steps: Heparin sepharose CL-6B, polyU sepharose 4B, and […] SP sepharose (Pharmacia). The chromatography buffers were identical to the lysis buffer but contained no lysozyme, deoxyribonuclease I, MgCl2 or protease inhibitor and the NaCl concentration of the buffer was adjusted according to the requirements for charging the protein onto the column. Each column was eluted with a NaCl gradient which varied in length from 5-50 column volumes depending on the column type. After the final chromatography step, the resulting purity of the enzyme is >90% based on SDS-PAGE analysis. The enzyme was aliquoted and stored at −80° C.
# HCV RdRp genotype 1b assays were run in a final volume of 60 μl in 96 well plates (Costar 3912). The assay buffer is composed of 20 mM Hepes, pH 7.5, 2.5 mM KCl, 2.5 mM MgCl2, 1 mM DTT, 1.6 U RNAse inhibitor (Promega N2515), 0.1 mg/ml BSA (Promega R3961), and 2% glycerol. All compounds were serially diluted (3-fold) in DMSO and diluted further in water such that the final concentration of DMSO in the assay was 2%. HCV RdRp genotype 1b enzyme was used at a final concentration of 28 nM. A polyA template was used at 6 nM, and a biotinylated oligo-dT12 primer was used at 180 nM final concentration. Template was obtained commercially (Amersham 27-4110). Biotinylated primer was prepared by Sigma Genosys. 3H-UTP was used at 0.6 μCi (0.29 μM total UTP). Reactions were initiated by the addition of enzyme, incubated at 30° C. for 60 min, and stopped by adding 25 μl of 50 mM EDTA containing SPA beads (4 μg/μl, Amersham RPNQ 0007). Plates were read on a Packard TOPCOUNT® NXT after >1 hr incubation at room temperature.
# A modified enzyme assay was performed essentially as described for the standard enzyme assay except for the following: The biotinylated oligo dT12 primer was precaptured on streptavidin-coated SPA beads by mixing primer and beads in assay buffer and incubating at room temperature for one hour. Unbound primer was removed after centrifugation. The primer-bound beads were resuspended in 20 mM Hepes buffer, pH 7.5 and used in the assay at final concentrations of 20 nM primer and 0.67 μg/μl beads. Order of addition in the assay: enzyme (14 nM) was added to diluted compound followed by the addition of a mixture of template (0.2 nM), 3H-UTP (0.6 μCi, 0.29 μM), and primer-bound beads, to initiate the reaction; concentrations given are final. Reactions were allowed to proceed for 4 hours at 30° C.
# IC50 values for compounds were determined using seven different [I]. IC50 values were calculated from the inhibition using the formula y=A+((B−A)/(1+((C/x)^D))).
# [2] = system: HCV replicon; experiment: HCV replicon assay (FRET or luciferase reporter); assay type: cell-based; details: Hepatitis C virus, one of the methods described
# Text: To perform the HCV FRET screening assay, 96-well cell culture plates were used, The FRET peptide (Anaspec, Inc.) (Taliani et al., Anal. Biochem., 240:60-67 (1996)) contains a fluorescence donor, EDANS, near one end of the peptide and an acceptor, DABCYL, near the other end. The fluorescence of the peptide is quenched by […] resonance energy transfer (RET) between the donor and the acceptor, but as the NS3 protease cleaves the peptide the products are released from RET quenching and the fluorescence of the donor becomes apparent. The assay reagent was made as follows: 5× cell Luciferase cell culture lysis reagent from Promega (#E153A) diluted to 1× with dH2O, NaCl added to 150 mM final, the FRET peptide diluted to 20 μM final from a 2 mM stock.
# To prepare plates, HCV replicon cells, with or without a Renilla luciferase reporter gene, were trypsinized and placed into each well of a 96-well plate with titrated test compounds added in columns 3 through 12; columns 1 and 2 contained a control compound (HCV protease inhibitor), and the bottom row contained cells without compound. The plates were then placed in a CO2 incubator at 37° C.
# Subsequent to addition of the test compounds described above (FRET Assay Preparation), at various times the plate was removed and Alamar blue solution (Trek Diagnostics, #00-100) was added per well as a measure of cellular toxicity. After reading in a CYTOFLUOR® 4000 instrument (PE Biosystems), plates were rinsed with PBS and then used for FRET assay by the addition of 30 ul of the FRET peptide assay reagent described above (FRET Assay Preparation) per well. The plate was then placed into the CYTOFLUOR® 4000 instrument which had been set to 340 excite/490 emission, automatic mode for 20 cycles and the plate read in a kinetic mode. Typically, the signal to noise using an endpoint analysis after the reads was at least three-fold. Alternatively, after Alamar blue reading, plates were rinsed with PBS, 50 ul of DMEM (high glucose) without phenol red was added and plates were then used for luciferase assay using the Promega DUAL-GLO® Luciferase Assay System.
# Compound analysis was determined by quantification of the relative HCV replicon inhibition and the relative cytotoxicity values. To calculate cytoxicity values, the average Alamar Blue fluorescence signals from the control wells were set as 100% non-toxic. The individual signals in each of the compound test wells were then divided by the average control signal and multiplied by 100% to determine […]. To calculate the HCV replicon inhibition values, an average background value was obtained from the two wells containing the highest amount of HCV protease inhibitor at the end of the assay period. These numbers were similar to those obtained from naïve Huh-7 cells.
# The background numbers were then subtracted from the average signal obtained from the control wells and this number was used as 100% activity. The individual signals in each of the compound test wells were then divided by the averaged control values after background subtraction and multiplied by 100% to determine percent activity. EC50 values for a protease inhibitor titration were calculated as the concentration which caused a 50% reduction in FRET or luciferase activity. The two numbers generated for the compound plate, percent cytoxicity and percent activity were used to determine compounds of interest for further analysis.
# The HCV replicon luciferase assay was developed to monitor the inhibitory effects of compounds described in the disclosure on HCV viral replication. Utilization of a replicon luciferase reporter assay was first described by Krieger et al (Krieger, N. et al., J. Virology, 75(10):4614-4624 (2001)). HUH-7 cells, constitutively expressing the HCV replicon, were grown in Dulbecco's Modified Eagle Media (DMEM) (Gibco-BRL) containing 10% Fetal calf serum (FCS) (Sigma) and 1 mg/ml G418 (Gibco-BRL). […]
# T1 sequence (Q9WMX2 2420-2992): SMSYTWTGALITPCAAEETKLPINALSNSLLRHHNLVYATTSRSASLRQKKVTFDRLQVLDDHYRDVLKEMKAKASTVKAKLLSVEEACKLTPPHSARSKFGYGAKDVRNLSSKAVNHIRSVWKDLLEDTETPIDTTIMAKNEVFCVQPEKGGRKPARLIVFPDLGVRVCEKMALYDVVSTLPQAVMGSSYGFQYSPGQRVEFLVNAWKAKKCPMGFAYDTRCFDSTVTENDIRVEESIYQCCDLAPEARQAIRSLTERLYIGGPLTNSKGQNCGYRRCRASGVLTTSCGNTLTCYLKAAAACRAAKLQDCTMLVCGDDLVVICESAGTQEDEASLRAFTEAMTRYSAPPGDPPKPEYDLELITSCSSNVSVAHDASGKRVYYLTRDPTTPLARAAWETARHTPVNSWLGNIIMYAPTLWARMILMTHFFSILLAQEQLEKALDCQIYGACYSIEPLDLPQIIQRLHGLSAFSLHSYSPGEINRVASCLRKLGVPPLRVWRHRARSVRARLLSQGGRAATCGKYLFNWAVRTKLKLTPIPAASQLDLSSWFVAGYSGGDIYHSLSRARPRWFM
smiles,measurement,setting,value
CCOC(=O)c1cnn(C2CCC2)c1C1=Cc2cc(OC)ccc2-c2c(C3CCCCC3)c3ccc(C(=O)OC(C)(C)C)cc3n2C1,IC50,[1]; class symbol,> 500 nM
COc1ccc2c(c1)C=C(c1c(C(=O)O)cnn1C1CCC1)Cn1c-2c(C2CCCCC2)c2ccc(C(=O)NS(=O)(=O)CC(C)C)cc21,IC50,[1]; class symbol,1.7 to 500 nM
COc1ccc2c(c1)C=C(c1c(C(=O)O)cnn1C1CCC1)Cn1c-2c(C2CCCCC2)c2ccc(C(=O)NS(=O)(=O)C(C)C)cc21,IC50,[1]; class symbol,1.7 to 500 nM
CCOC(=O)c1cnn(C2CCC2)c1C1=Cc2cc(OC)ccc2-c2c(C3CCCCC3)c3ccc(C(=O)NS(=O)(=O)CC(C)C)cc3n2C1,IC50,[1]; class symbol,1.7 to 500 nM
CCOC(=O)c1cnn(C2CCC2)c1C1=Cc2cc(OC)ccc2-c2c(C3CCCCC3)c3ccc(C(=O)NS(=O)(=O)C(C)C)cc3n2C1,IC50,[1]; class symbol,1.7 to 500 nM
CCOC(=O)c1cnn(C2CCOCC2)c1C1=Cc2cc(OC)ccc2-c2c(C3CCCCC3)c3ccc(C(=O)O)cc3n2C1,IC50,[1]; class symbol,1.7 to 500 nM
CCOC(=O)c1cnn(C2CCOCC2)c1C1=Cc2cc(OC)ccc2-c2c(C3CCCCC3)c3ccc(C(=O)NS(=O)(=O)C(C)C)cc3n2C1,IC50,[1]; class symbol,1.7 to 500 nM
COc1ccc2c(c1)C=C(c1c(C(=O)O)cnn1C1CCOCC1)Cn1c-2c(C2CCCCC2)c2ccc(C(=O)NS(=O)(=O)C(C)C)cc21,IC50,[1]; class symbol,1.7 to 500 nM
CCOC(=O)c1cnn(C2CCOCC2)c1C1=Cc2cc(OC)ccc2-c2c(C3CCCCC3)c3ccc(C(=O)NS(=O)(=O)CC(C)C)cc3n2C1,IC50,[1]; class symbol,1.7 to 500 nM
COc1ccc2c(c1)C=C(c1c(C(=O)O)cnn1C1CCOCC1)Cn1c-2c(C2CCCCC2)c2ccc(C(=O)NS(=O)(=O)CC(C)C)cc21,IC50,[1]; class symbol,1.7 to 500 nM
COc1ccc2c(c1)C=C(c1c(C(=O)N3C[C@@H](C)O[C@@H](C)C3)cnn1C1CCOCC1)Cn1c-2c(C2CCCCC2)c2ccc(C(=O)NS(=O)(=O)C(C)C)cc21,EC50,[2]; class symbol,1.7 to 500 nM
same,EC50,[2]; exact value,8.9 nM
same,IC50,[1]; class symbol,1.7 to 500 nM
same,IC50,[1]; exact value,2.6 nM
COc1ccc2c(c1)C=C(c1c(C(=O)N3CCOCC3)cnn1C1CCOCC1)Cn1c-2c(C2CCCCC2)c2ccc(C(=O)NS(=O)(=O)C(C)C)cc21,EC50,[2]; class symbol,1.7 to 500 nM
same,IC50,[1]; class symbol,1.7 to 500 nM
COc1ccc2c(c1)C=C(c1c(C(=O)N3C4CCC3CN(C)C4)cnn1C1CCOCC1)Cn1c-2c(C2CCCCC2)c2ccc(C(=O)NS(=O)(=O)C(C)C)cc21,EC50,[2]; class symbol,1.7 to 500 nM
same,IC50,[1]; class symbol,1.7 to 500 nM
COc1ccc2c(c1)C=C(c1c(C(=O)N3C[C@@H](C)N(C)[C@@H](C)C3)cnn1C1CCOCC1)Cn1c-2c(C2CCCCC2)c2ccc(C(=O)NS(=O)(=O)C(C)C)cc21,EC50,[2]; class symbol,1.7 to 500 nM
same,IC50,[1]; class symbol,1.7 to 500 nM
CCN1C[C@@H]2C[C@H]1CN2C(=O)c1cnn(C2CCOCC2)c1C1=Cc2cc(OC)ccc2-c2c(C3CCCCC3)c3ccc(C(=O)NS(=O)(=O)C(C)C)cc3n2C1,EC50,[2]; class symbol,1.7 to 500 nM
same,IC50,[1]; class symbol,1.7 to 500 nM
COc1ccc2c(c1)C=C(c1c(C(=O)N3CC4CCC(C3)N4C)cnn1C1CCOCC1)Cn1c-2c(C2CCCCC2)c2ccc(C(=O)NS(=O)(=O)C(C)C)cc21,EC50,[2]; class symbol,1.7 to 500 nM
same,IC50,[1]; class symbol,1.7 to 500 nM
COc1ccc2c(c1)C=C(c1c(C(=O)N3C[C@@H](C)O[C@@H](C)C3)cnn1C1CCOCC1)Cn1c-2c(C2CCCCC2)c2ccc(C(=O)NS(=O)(=O)CC(C)C)cc21,EC50,[2]; class symbol,1.7 to 500 nM
same,IC50,[1]; class symbol,1.7 to 500 nM
COc1ccc2c(c1)C=C(c1c(C(=O)N3CCOCC3)cnn1C1CCOCC1)Cn1c-2c(C2CCCCC2)c2ccc(C(=O)NS(=O)(=O)CC(C)C)cc21,EC50,[2]; class symbol,1.7 to 500 nM
same,EC50,[2]; exact value,8.4 nM
same,IC50,[1]; class symbol,1.7 to 500 nM
same,IC50,[1]; exact value,4.2 nM
COc1ccc2c(c1)C=C(c1c(C(=O)O)noc1C1CC1)Cn1c-2c(C2CCCCC2)c2ccc(C(=O)NS(=O)(=O)N(C)C)cc21,EC50,[2]; class symbol,1.7 to 500 nM
COc1ccc2c(c1)C=C(c1c(C(=O)N3CCCN(C)CC3)cnn1C1CCC1)Cn1c-2c(C2CCCCC2)c2ccc(C(=O)NS(=O)(=O)C(C)C)cc21,IC50,[1]; class symbol,1.7 to 500 nM
CCN1CC2CC1CN2C(=O)c1c(C2=Cc3cc(OC)ccc3-c3c(C4CCCCC4)c4ccc(C(=O)NS(=O)(=O)C(C)C)cc4n3C2)ncn1C1CC1 (stereo not shown),IC50,[1]; class symbol,1.7 to 500 nM
COc1ccc2c(c1)C=C(c1ncn(C3CC3)c1C(=O)N1C[C@@H](C)O[C@@H](C)C1)Cn1c-2c(C2CCCCC2)c2ccc(C(=O)NS(=O)(=O)C(C)C)cc21,EC50,[2]; class symbol,1.7 to 500 nM
COc1ccc2c(c1)C=C(c1c(C(=O)N3CC4CCC3CN4)cnn1C1CCC1)Cn1c-2c(C2CCCCC2)c2ccc(C(=O)NS(=O)(=O)C(C)C)cc21 (stereo not shown),EC50,[2]; class symbol,1.7 to 500 nM
COc1ccc2c(c1)C=C(c1c(C(=O)N3CCOCC4(CNC4)C3)cnn1C1CCC1)Cn1c-2c(C2CCCCC2)c2ccc(C(=O)NS(=O)(=O)C(C)C)cc21,EC50,[2]; class symbol,1.7 to 500 nM
same,EC50,[2]; exact value,350 nM
